According to the NIST ThermoML archive (doi:10.1021/je900137r):

Assay: molar heat capacity at constant volume
Conditions: Liquid, Vacuum adiabatic calorimetry

CCC [propane]
Conditions	molar heat capacity at constant volume [J/K/mol]
101.14 K, 5078 kPa	59.59
102.31 K, 9415 kPa	59.63
104.09 K, 13618 kPa	59.63
105.25 K, 15961 kPa	59.93
107.01 K, 19580 kPa	59.8
108.15 K, 22430 kPa	60.17
109.89 K, 26296 kPa	60.2
111.02 K, 28556 kPa	60.44
124.99 K, 4945 kPa	59.16
126.59 K, 8062 kPa	59.47
127.81 K, 10414 kPa	59.44
129.39 K, 13480 kPa	59.66
130.6 K, 15739 kPa	59.6
132.17 K, 18723 kPa	60.02
133.36 K, 20943 kPa	60
134.92 K, 23869 kPa	60.12
136.1 K, 26024 kPa	60.14
137.64 K, 28865 kPa	60.52
138.81 K, 30978 kPa	60.43
149.78 K, 4666 kPa	59.78
150.88 K, 6488 kPa	59.62
152.48 K, 9113 kPa	59.99
153.59 K, 10968 kPa	60.1
155.17 K, 13482 kPa	60.14
156.27 K, 15303 kPa	60.05
157.84 K, 17768 kPa	60.44
158.93 K, 19535 kPa	60.5
160.49 K, 21973 kPa	60.63
161.58 K, 23733 kPa	60.93
163.12 K, 26095 kPa	60.76
164.21 K, 27828 kPa	61.2
165.73 K, 30131 kPa	61.05
166.81 K, 31798 kPa	61.54
174.72 K, 4244 kPa	60.48
175.51 K, 5348 kPa	60.54
177.36 K, 7916 kPa	60.58
178.15 K, 9061 kPa	60.86
179.97 K, 11523 kPa	61.04
180.77 K, 12700 kPa	61.22
182.57 K, 15077 kPa	61.29
183.38 K, 16221 kPa	61.34
185.16 K, 18570 kPa	61.57
185.97 K, 19691 kPa	61.79
187.72 K, 22005 kPa	62.06
188.54 K, 23141 kPa	62.12
190.27 K, 25385 kPa	62.49
191.1 K, 26538 kPa	62.39
192.81 K, 28708 kPa	62.66
193.64 K, 29843 kPa	62.88
195.33 K, 31980 kPa	62.87
196.16 K, 33063 kPa	63.39
199.29 K, 3434 kPa	62.08
200.29 K, 4569 kPa	62.02
201.88 K, 6487 kPa	62.05
202.88 K, 7627 kPa	62.29
204.46 K, 9498 kPa	62.44
205.45 K, 10675 kPa	62.72
207.03 K, 12468 kPa	63.03
208.02 K, 13633 kPa	63.07
209.59 K, 15407 kPa	63.29
210.57 K, 16525 kPa	63.38
212.13 K, 18295 kPa	63.46
213.11 K, 19392 kPa	63.48
214.66 K, 21152 kPa	63.9
215.63 K, 22244 kPa	63.92
217.18 K, 23972 kPa	64.21
218.15 K, 25069 kPa	64.71
219.69 K, 26749 kPa	64.74
220.66 K, 27850 kPa	64.89
222.18 K, 29491 kPa	65.36
223.14 K, 30548 kPa	65.25
224.67 K, 32203 kPa	65.68
224.72 K, 3002 kPa	64.29
225.63 K, 33221 kPa	66
225.69 K, 3945 kPa	64.4
227.28 K, 5514 kPa	64.59
228.26 K, 6458 kPa	64.54
229.84 K, 8010 kPa	64.8
230.82 K, 8990 kPa	65.2
232.38 K, 10480 kPa	64.79
233.38 K, 11478 kPa	65.49
234.92 K, 12923 kPa	65.31
235.92 K, 13904 kPa	65.71
237.46 K, 15350 kPa	65.71
238.46 K, 16299 kPa	66.07
239.99 K, 17746 kPa	65.96
240.99 K, 18681 kPa	66.68
242.51 K, 20123 kPa	66.43
243.5 K, 21054 kPa	66.99
245.03 K, 22471 kPa	67.42
246.01 K, 23413 kPa	67.65
247.54 K, 24804 kPa	67.75
248.53 K, 25750 kPa	67.69
249.66 K, 2670 kPa	66.76
250.04 K, 27105 kPa	67.7
250.68 K, 3498 kPa	66.65
251.02 K, 28035 kPa	68.22
252.25 K, 4769 kPa	67.25
252.53 K, 29385 kPa	68.06
253.26 K, 5557 kPa	67.47
253.52 K, 30287 kPa	68.63
254.85 K, 6861 kPa	67.69
255.02 K, 31645 kPa	68.71
255.85 K, 7667 kPa	67.82
256 K, 32529 kPa	69.58
257.44 K, 8938 kPa	67.87
258.44 K, 9764 kPa	67.88
260.02 K, 10999 kPa	68.4
261.02 K, 11824 kPa	68.53
262.61 K, 13051 kPa	68.83
263.6 K, 13861 kPa	69.03
265.2 K, 15091 kPa	69.38
266.18 K, 15878 kPa	69.32
267.79 K, 17120 kPa	69.94
268.76 K, 17881 kPa	69.68
